Data reported in patent US20100311714A1, “1H-IMIDAZO[4,5-c]QUINOLINONE COMPOUNDS” (priority 2009, published 2010).
Where two headings read alike, the source gives them in different places.

Assays:
PI3K delta = biological target: T1, PI3K delta (Homo sapiens, UniProt O00329); assay: PI3K delta kinase assay (Kinase-Glo luminescence); type: biochemical
T1 construct: for the full-length p110-d subunit are generated and fused by overlapping PCR; His tag (C); made in house; host or cells: baculovirus BV1060; Tn5 (Trichoplusia ni) or TiniPro insect cells
T1 sequence (O00329 with tags, fused parts or gaps limits assumed): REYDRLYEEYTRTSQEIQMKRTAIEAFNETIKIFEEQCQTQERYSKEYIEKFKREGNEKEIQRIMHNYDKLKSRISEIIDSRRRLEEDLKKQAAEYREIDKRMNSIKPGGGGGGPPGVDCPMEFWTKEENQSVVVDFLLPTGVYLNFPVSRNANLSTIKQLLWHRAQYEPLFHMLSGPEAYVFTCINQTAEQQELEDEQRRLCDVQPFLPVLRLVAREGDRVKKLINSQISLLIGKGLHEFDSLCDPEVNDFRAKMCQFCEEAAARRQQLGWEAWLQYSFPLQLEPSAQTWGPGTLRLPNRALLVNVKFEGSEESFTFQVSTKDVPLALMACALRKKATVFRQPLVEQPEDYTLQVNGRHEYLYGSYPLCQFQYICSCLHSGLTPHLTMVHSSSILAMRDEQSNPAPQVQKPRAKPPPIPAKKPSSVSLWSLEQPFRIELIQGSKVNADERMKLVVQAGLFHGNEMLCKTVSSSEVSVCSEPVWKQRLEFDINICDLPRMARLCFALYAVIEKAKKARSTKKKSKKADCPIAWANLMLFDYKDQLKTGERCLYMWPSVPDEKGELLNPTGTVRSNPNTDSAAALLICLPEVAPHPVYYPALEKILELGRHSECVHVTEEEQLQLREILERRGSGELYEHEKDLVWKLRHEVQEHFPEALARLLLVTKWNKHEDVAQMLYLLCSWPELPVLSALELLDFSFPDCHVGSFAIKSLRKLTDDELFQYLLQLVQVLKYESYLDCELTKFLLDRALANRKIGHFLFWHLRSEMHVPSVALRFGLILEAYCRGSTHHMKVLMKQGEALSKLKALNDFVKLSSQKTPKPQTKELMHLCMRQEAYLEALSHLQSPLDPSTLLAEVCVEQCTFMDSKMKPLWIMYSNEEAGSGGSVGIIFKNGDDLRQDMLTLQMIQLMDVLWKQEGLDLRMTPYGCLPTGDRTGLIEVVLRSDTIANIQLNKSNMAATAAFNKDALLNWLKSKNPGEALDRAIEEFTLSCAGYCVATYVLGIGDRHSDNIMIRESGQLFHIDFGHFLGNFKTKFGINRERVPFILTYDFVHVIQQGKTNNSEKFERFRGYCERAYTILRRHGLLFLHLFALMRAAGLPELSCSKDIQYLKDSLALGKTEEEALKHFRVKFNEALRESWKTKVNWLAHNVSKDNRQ
Experimental: In a more preferred assay, the kinase reaction is performed in a final volume of 10 μL per well of a low volume non binding CORNING, 384 well black plate (Cat. No. #3676). The final concentrations of ATP and phosphatidyl inositol (PI) in the assay are 1 μM and 10 μg/mL respectively. The reaction is started by the addition of ATP.
The components of the assay are added per well as follows:
50 nL test compounds in 90% DMSO per well, in columns 1-20, 8 concentrations (⅓ and 1/3.33 serial dilution step) in single. • Low control: […] of 90% DMSO in half the wells of columns 23-24 (0.45% in final). • High control: 50 nL of reference compound (e.g. compound of Example 7 in WO 2006/122806) in the other half of columns 23-24 (2.5 μM in final). • Standard: 50 nL of reference compound as just mentioned diluted as the test compounds in columns 21-22 • 20 mL ‘buffer’ are prepared per assay: • 200 μL of 1M TRIS HCl pH7.5 (10 mM in final) • 60 μL of 1M MgCl2 (3 mM in final) • 500 μL of 2M NaCl (50 mM in final) • 100 μL of 10% CHAPS (0.05% in final) • 200 μL of 100 mM DTT (1 mM in final) • 18.94 mL of nanopure water • 10 mL ‘PI’ are prepared per assay: • 200 μL of 1 mg/ml L-alpha-Phosphatidylinositol (Liver Bovine, Avanti Polar Lipids Cat. No. 840042C MW=909.12) prepared in 3% OctylGlucoside (10 μg/ml in final) • 9.8 mL of ‘buffer’ • 10 mL ‘ATP’ are prepared per assay: • 6.7 μL of 3 mM stock of ATP giving a final concentration of 1 μM per well • 10 mL of ‘buffer’ • 2.5 mL of each PI3K construct are prepared per assay in ‘PI’ with the following final concentration: • 10 nM PI3K alfa EMV B1075 • 25 nM beta EMV BV949 • 10 nM delta EMV BV1060 • 150 nM gamma EMV BV950 • 5 μL of ‘PI/PI3K’ are added per well. • 5 μl ‘ATP’ are added per well to start the reaction. • The plates are then incubated at room temperature for 60 minutes (alfa, beta, delta) or 120 minutes (gamma). • The reaction is terminated by the addition of 10 μL Kinase-Glo (Promega Cat. No. #6714). • The assay plates are read after 10 minutes in Synergy 2 reader (BioTek, Vermont USA) with an integration time of 100 milliseconds and sensitivity set to 191. • Output: The High control is around 60′000 counts and the Low control is 30′000 or lower • This luminescence assay gives a useful Z′ ratio between 0.4 and 0.7
PI3Kδ BV-1060 p85(iSH2)-Gly Linker-p110d(Full-Length)-C-Term His Tag
PI3K delta is purified in three chromatographic steps: immobilized metal affinity chromatography on a Ni Sepharose resin (GE Healthcare), gel filtration utilizing a Superdex 200 26/60 column (GE Healthcare), and finally a anion exchange step on a Q-HP column (GE Healthcare). All buffers are chilled to 4° C. and lysis is performed chilled on ice. Column fractionation is performed rapidly at room temperature. Typically frozen insect cells are lysed in a hypertonic lysis buffer and applied to a prepared IMAC column. The resin is washed with 3-5 column volumes of lysis buffer, followed by 3-5 column volumes wash buffer containing 45 mM imidazole, and the target protein is then eluted with a buffer containing 250 mM imidazole. Fractions are analyzed by Coomassie stained SDS-PAGE gels, and fractions containing the target protein are pooled and applied to a prepared GFC column. Fractions from the GFC column are analyzed by Coomassie stained SDS-PAGE gels, and fractions containing the target protein are pooled. The pool from the GFC column is diluted into a low salt buffer and applied to a prepared Q-HP column. The column is washed with low salt buffer until a stable A280 baseline absorbance is achieved, and eluted using a 20 column volume gradient from 0 mM NaCl to 500 mM NaCl. Again, fractions from the Q-HP column are analyzed by Coomassie stained SDS-PAGE gels, and fractions containing the target protein are pooled. The final pool is dialyzed into a storage buffer containing 50% glycerol and stored at −20° C. The final pool is assayed for activity in the phosphoinostitol kinase assay. […]

mTOR = biological target: T2, mTOR (Homo sapiens, UniProt P42345); assay: Biochemical assay for m-TOR by TR-FRET
T2 construct: purchased Invitrogen Corporation (Carlsbad/Calif., USA) PV4753
T2 sequence (P42345 1360-2549 limits assumed): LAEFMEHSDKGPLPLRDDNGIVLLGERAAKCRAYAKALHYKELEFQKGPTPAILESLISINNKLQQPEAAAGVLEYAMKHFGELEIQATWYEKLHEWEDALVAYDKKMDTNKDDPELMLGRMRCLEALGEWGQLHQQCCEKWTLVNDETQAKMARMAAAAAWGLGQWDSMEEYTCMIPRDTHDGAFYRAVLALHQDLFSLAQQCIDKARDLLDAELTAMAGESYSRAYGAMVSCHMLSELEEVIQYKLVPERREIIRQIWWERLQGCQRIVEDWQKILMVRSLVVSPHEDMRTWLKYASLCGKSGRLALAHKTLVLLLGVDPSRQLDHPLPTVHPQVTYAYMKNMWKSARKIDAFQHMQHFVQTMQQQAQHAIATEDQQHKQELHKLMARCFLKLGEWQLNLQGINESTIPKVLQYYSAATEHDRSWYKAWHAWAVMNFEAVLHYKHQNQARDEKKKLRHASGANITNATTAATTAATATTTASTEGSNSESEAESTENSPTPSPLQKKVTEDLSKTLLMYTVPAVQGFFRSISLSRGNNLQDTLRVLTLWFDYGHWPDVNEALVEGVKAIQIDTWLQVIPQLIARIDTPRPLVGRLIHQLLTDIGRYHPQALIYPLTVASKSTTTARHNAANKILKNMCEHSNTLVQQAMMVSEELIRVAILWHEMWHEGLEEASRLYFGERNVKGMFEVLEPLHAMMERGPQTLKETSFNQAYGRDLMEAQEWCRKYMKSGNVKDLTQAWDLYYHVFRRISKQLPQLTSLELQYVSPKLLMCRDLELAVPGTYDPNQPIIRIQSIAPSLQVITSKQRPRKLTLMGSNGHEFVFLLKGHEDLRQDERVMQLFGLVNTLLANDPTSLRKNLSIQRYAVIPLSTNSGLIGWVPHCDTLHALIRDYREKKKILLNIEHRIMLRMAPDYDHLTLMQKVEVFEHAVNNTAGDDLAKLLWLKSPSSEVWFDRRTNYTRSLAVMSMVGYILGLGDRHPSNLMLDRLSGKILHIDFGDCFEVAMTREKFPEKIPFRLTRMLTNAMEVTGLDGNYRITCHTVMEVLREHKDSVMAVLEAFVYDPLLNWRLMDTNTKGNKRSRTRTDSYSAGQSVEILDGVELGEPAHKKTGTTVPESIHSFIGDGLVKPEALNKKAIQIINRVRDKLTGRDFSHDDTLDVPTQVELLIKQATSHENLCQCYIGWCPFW
Experimental: Biochemical Assay for m-TOR by TR-FRET.
Assay components are purchased from Invitrogen Corporation (Carlsbad/Calif., USA): GFP-4EBP1 (Cat. No. PV4759), Tb3+-α-p4EBP1 [pThr46] Antibody (Cat. No. PV4757), proprietary TR-FRET dilution buffer (Cat. No. PV3574), mTOR protein (Cat. No. PV4753).
50 nL of compound dilutions (final concentration of 10, 3.0, 1.0, 0.3, 0.1, 0.03, 0.01 and 0.003 μM) are dispensed onto black 384-well low volume non-binding polystyrene (Cat. No. NBS#3676, Corning, Lowell/Mass., USA). Then 5 μL of ATP (8 μM final concentration) and GFP-4EBP1 (400 nM final concentration) with 5 μL mTOR proteins (0.5 nM final concentration) are incubated at rt. The standard reaction buffer for the TR-FRET mTOR assay contained 50 mM HEPES pH 7.5, 10 mM MnCl2, 50 mM NaCl, 1 mM EGTA, 1 mM DTT. Reactions were stopped with 10 μL of a mixture of EDTA containing the Tb3+-α-p4EBP1[pT46] detection Ab (0.5 nM) in TR-FRET dilution buffer (proprietary to IVG). Plates are read 15 mins later in a Synergy2 reader using an integration time of 0.2 seconds and a delay of 0.1 seconds. Control for the 100% inhibition of the kinase reaction is performed by replacing the mTOR kinase by the standard reaction buffer. The control for the 0% inhibition is given by the solvent vehicle of the compounds (90% DMSO in H2O). A standard compound is used as a reference compound and included in all assay plates in the form of 16 dilution points in duplicate.

Structure (SMILES)	IC50 (PI3K delta; read-out: EPK_PI3Kdelta/IC50) [nM]	IC50 (mTOR; read-out: EPK_mTOR/IC50) [nM]	IC50 (PI3K delta; read-out: PI3Kdelta/IC50) [nM]	IC50 (mTOR; read-out: mTOR/IC50) [nM]
CCNc1ncc(-c2ccc3ncc4c(c3c2)n(-c2ccc(N3CC[C@@H](O)C3)nc2C)c(=O)n4C)cc1COCC [Example 34.4, 8-(5-Ethoxymethyl-6-ethylamino-pyridin-3-yl)-1-[6-((R)-3-hydroxy-pyrrolidin-1-yl)-2-methyl-pyridin-3-yl]-3-methyl-1,3-dihydro-imidazo[4,5-c]quinolin-2-one]	26	214		
Cn1c(=O)n(-c2cccnc2F)c2c3cc(-c4cnc(N)c(C(F)(F)F)c4)ccc3ncc21 [Example 6.2, 8-(6-Amino-5-trifluoromethyl-pyridin-3-yl)-1-(2-fluoro-pyridin-3-yl)-3-methyl-1,3-dihydro-imidazo[4,5-c]quinolin-2-one]			12	15
Cc1cccnc1-n1c(=O)n(C)c2cnc3ccc(-c4cnc(N)c(C(F)(F)F)c4)cc3c21 [Example 3.12, 8-(6-Amino-5-trifluoromethyl-pyridin-3-yl)-3-methyl-1-(3-methyl-pyridin-2-yl)-1,3-dihydro-imidazo[4,5-c]quinolin-2-one]			21	389
Cc1nc(C(F)(F)F)ccc1-n1c(=O)n(C)c2cnc3ccc(-c4cncc(C(C)(C)O)c4)cc3c21 [Example 33.1, 8-[5-(1-Hydroxy-1-methyl-ethyl)-pyridin-3-yl]-3-methyl-1-(2-methyl-6-trifluoromethyl-pyridin-3-yl)-1,3-dihydro-imidazo[4,5-c]quinolin-2-one]	6	92		
CNc1ncc(-c2ccc3ncc4c(c3c2)n(-c2ccc(N3CC(O)C3)nc2C)c(=O)n4C)cc1F [Example 29.3, 8-(5-Fluoro-6-methylamino-pyridin-3-yl)-1-[6-(3-hydroxy-azetidin-1-yl)-2-methyl-pyridin-3-yl]-3-methyl-1,3-dihydro-imidazo[4,5-c]quinolin-2-one]	23	8		
CCNc1ncc(-c2ccc3ncc4c(c3c2)n(-c2ccc(C(C)(C)O)nc2C)c(=O)n4C)cn1 [Example 31.7, 8-(2-Ethylamino-pyrimidin-5-yl)-1-[6-(1-hydroxy-1-methyl-ethyl)-2-methyl-pyridin-3-yl]-3-methyl-1,3-dihydro-imidazo[4,5-c]quinolin-2-one]	27	21		
COCc1ncc(-c2ccc3ncc4c(c3c2)n(-c2ccc(N3CCC3)nc2C)c(=O)n4C)cc1OC(C)C [Example 23.2, 1-(6-Azetidin-1-yl-2-methyl-pyridin-3-yl)-8-(5-isopropoxy-6-methoxymethyl-pyridin-3-yl)-3-methyl-1,3-dihydro-imidazo[4,5-c]quinolin-2-one]	31	44		
CCOc1ccc(-c2ccc3ncc4c(c3c2)n(-c2ccc(N3CCNCC3)nc2OC)c(=O)n4C)cn1 [Example 9.1, 8-(6-Ethoxy-pyridin-3-yl)-1-(2-methoxy-6-piperazin-1-yl-pyridin-3-yl)-3-methyl-1,3-dihydro-imidazo[4,5-c]quinolin-2-one]			66	
COc1nc(N2CCNCC2)ccc1-n1c(=O)n(C)c2cnc3ccc(-c4cnc(N)c(C(F)(F)F)c4)cc3c21 [Example 9.2, 8-(6-Amino-5-trifluoromethyl-pyridin-3-yl)-1-(2-methoxy-6-piperazin-1-yl-pyridin-3-yl)-3-methyl-1,3-dihydro-imidazo[4,5-c]quinolin-2-one]			15	

The remaining lines, values ahead:

IC50 (PI3K delta; read-out: EPK_PI3Kdelta/IC50) [nM]	IC50 (mTOR; read-out: EPK_mTOR/IC50) [nM]	IC50 (PI3K delta; read-out: PI3Kdelta/IC50) [nM]	IC50 (mTOR; read-out: mTOR/IC50) [nM]	Structure (SMILES)
		120	442	COc1ccc(-c2ccc3ncc4c(c3c2)n(-c2cnccc2C)c(=O)n4C)cn1 [Example 4.3, 8-(6-Methoxy-pyridin-3-yl)-3-methyl-1-(4-methyl-pyridin-3-yl)-1,3-dihydro-imidazo[4,5-c]quinolin-2-one]
		20	19	CNc1ccc(-c2ccc3ncc4c(c3c2)n(-c2cccnc2C)c(=O)n4C)cn1 [Example 2.13, 3-Methyl-8-(6-methylamino-pyridin-3-yl)-1-(2-methyl-pyridin-3-yl)-1,3-dihydro-imidazo[4,5-c]quinolin-2-one]
		851		CCOc1ncc(-c2ccc3ncc4c(c3c2)n(-c2ncccc2C)c(=O)n4C)cn1 [Example 3.1, 8-(2-Ethoxy-pyrimidin-5-yl)-3-methyl-1-(3-methyl-pyridin-2-yl)-1,3-dihydro-imidazo[4,5-c]quinolin-2-one]
		583		Cc1cccnc1-n1c(=O)n(C)c2cnc3ccc(-c4ccc(CO)nc4)cc3c21 [Example 3.9, 8-(6-Hydroxymethyl-pyridin-3-yl)-3-methyl-1-(3-methyl-pyridin-2-yl)-1,3-dihydro-imidazo[4,5-c]quinolin-2-one]
		401		CCOc1ccc(-c2ccc3ncc4c(c3c2)n(-c2cnccc2C)c(=O)n4C)cn1 [Example 4.2, 8-(6-Ethoxy-pyridin-3-yl)-3-methyl-1-(4-methyl-pyridin-3-yl)-1,3-dihydro-imidazo[4,5-c]quinolin-2-one]
		151		COc1ccc(-c2ccc3ncc4c(c3c2)n(-c2ncccc2C)c(=O)n4C)cc1OC [Example 3.10, 8-(3,4-Dimethoxy-phenyl)-3-methyl-1-(3-methyl-pyridin-2-yl)-1,3-dihydro-imidazo[4,5-c]quinolin-2-one]
		406		Cc1ccncc1-n1c(=O)n(C)c2cnc3ccc(-c4ccc(CO)nc4)cc3c21 [Example 4.1, 8-(6-Hydroxymethyl-pyridin-3-yl)-3-methyl-1-(4-methyl-pyridin-3-yl)-1,3-dihydro-imidazo[4,5-c]quinolin-2-one]
			331	CNC(=O)c1ccc(-c2ccc3ncc4c(c3c2)n(-c2ncccc2C)c(=O)n4C)cc1 [Example 3.5, N-Methyl-4-[3-methyl-1-(3-methyl-pyridin-2-yl)-2-oxo-2,3-dihydro-1H-imidazo[4,5-c]quinolin-8-yl]-benzamide]
